The values that follow come from patent US8691852B2, “Amino nicotinic and isonicotinic acid derivatives as DHODH inhibitors” (Amirall, S.A., priority 2006, dated 2014).

For one assay, the target named is human DHODH (Homo sapiens (Human), UniProt Q02127). The assay can be described thus: Inhibition of human DHODH activity assay (DCIP chromogen reduction). To be noted: read-out: hDHODH IC50; human enzyme extract, 200 μM CoQD, 100 μM L-DHO, 120 μM DCIP, 10 min room temperature, absorbance 600 nm.
Chain of human DHODH (Q02127 whole entry): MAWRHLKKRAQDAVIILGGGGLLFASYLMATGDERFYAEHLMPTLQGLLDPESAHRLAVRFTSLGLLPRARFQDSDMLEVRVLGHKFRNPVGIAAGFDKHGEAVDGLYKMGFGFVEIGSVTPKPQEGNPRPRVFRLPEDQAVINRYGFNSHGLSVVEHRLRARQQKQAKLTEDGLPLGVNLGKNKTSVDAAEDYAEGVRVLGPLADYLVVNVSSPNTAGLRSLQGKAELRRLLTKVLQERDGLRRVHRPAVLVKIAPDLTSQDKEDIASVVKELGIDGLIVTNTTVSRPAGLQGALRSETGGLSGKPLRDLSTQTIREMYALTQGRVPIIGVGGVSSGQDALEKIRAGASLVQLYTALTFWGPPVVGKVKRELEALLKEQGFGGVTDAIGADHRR
The next assay deals with HIV replication. As to conditions: at concentration that can be obtained with conventional dosing; cited from earlier work.

Protocol for human DHODH: DHODH activity and its inhibition were studied using a chromogen reduction assay with DCIP (2,6-dichlorophenol-indophenol).
Enzyme extracts (8 μl, ˜1.5 μg of human protein) were incubated in 96-well plates. The assay mixture (200 μl) contained 200 μM CoQD, 100 μM L-DHO, 120 μM DCIP in the assay buffer (100 mM HEPES pH 8.0, 150 mM NaCl, 10% Glicerol, 0.05% Triton X-100) and 2 μl of test compound. The compounds were dissolved in DMSO at a stock concentration of 1 mM, and tested at different concentrations varying from 10 μM to 1 μM to calculate an IC50 (concentration of inhibitor required for 50% of inhibition).
The reaction was initiated by adding the enzyme and then incubated for 10 min at room temperature before measuring DCIP reduction by counting a decrease in absorbance at 600 nm using standard instrumentation (Spectramax).
All reactions were carried out in duplicate and graphs, determining IC50 values for each compound, were plotted using the ABase software.

Turning to `CCOc1cccc(-c2ccc(Nc3ncccc3C(=O)O)c(F)c2)c1` [Example 2, 2-(3′-Ethoxy-3-fluorobiphenyl-4-ylamino)nicotinic acid], the IC50 on human DHODH was 0.2 µM.

Turning to `COc1cccc(-c2cc(F)c(Nc3ncccc3C(=O)O)cc2F)c1` [Example 6, 2-(2,5-Difluoro-3′-methoxybiphenyl-4-ylamino)nicotinic acid], the IC50 at human DHODH turned out to be 0.088 µM.

Turning to `COc1cccc(-c2ccc(Nc3ncccc3C(=O)O)c(Cl)c2)c1` [Example 13, 2-(3-Chloro-3′-methoxybiphenyl-4-ylamino)nicotinic acid], the IC50 at human DHODH came to 0.15 µM.

On to `O=C(O)c1cccnc1Nc1c(F)cc(-c2cccc(OC3CCC3)c2)cc1F` [Example 17, 2-(3′-Cyclobutoxy-3,5-difluorobiphenyl-4-ylamino)nicotinic acid], for which the IC50 at human DHODH turned out to be 0.09 µM.

For the compound `CCOc1cccc(-c2cc(F)c(Nc3ncccc3C(=O)O)c(F)c2)c1` [Example 19, 2-(3′-Ethoxy-3,5-difluorobiphenyl-4-ylamino)nicotinic acid], the IC50 on human DHODH came to 0.019 µM.

Take `CCOc1cccc(-c2ccc(Nc3cnccc3C(=O)O)c(F)c2)c1` [Example 21, Lithium 3-(3′-ethoxy-3-fluorobiphenyl-4-ylamino)isonicotinate]: at human DHODH, the IC50 amounted to 0.019 µM.

On to `COc1cccc(-c2ccc(Nc3cnccc3C(=O)O)c(OC(F)(F)F)c2)c1` [Example 23, Lithium 3-(3′-methoxy-3-(trifluoromethoxy)biphenyl-4-ylamino)isonicotinate], for which the IC50 on human DHODH was determined as 0.014 µM.

As for `O=C(O)c1ccncc1Nc1ccc(-c2cccc(OC(F)(F)F)c2)cc1F` [Example 24, Lithium 3-(3-fluoro-3′-(trifluoromethoxy)biphenyl-4-ylamino)isonicotinate], at human DHODH, the IC50 came out at 0.2 µM.

Turning to `Cc1cnc(Nc2ccc(-c3cccc(OC(F)(F)F)c3)cc2F)c(C(=O)O)c1` [Example 33, 2-(3-Fluoro-3′-(trifluoromethoxy)biphenyl-4-ylamino)-5-methylnicotinic acid], the IC50 at human DHODH was determined as 0.11 µM.

Regarding `COc1cccc(-c2ccc(Nc3ncc(C4CC4)cc3C(=O)O)c(F)c2)c1` [Example 34, 5-Cyclopropyl-2-(3-fluoro-3′-methoxybiphenyl-4-ylamino)nicotinic acid], the IC50 at human DHODH is 0.033 µM.

For the compound `COc1cccc(-c2cc(F)c(Nc3ncccc3C(=O)O)cc2C)c1` [Example 37, 2-(5-Fluoro-3′-methoxy-2-methylbiphenyl-4-ylamino)nicotinic acid], at human DHODH, the 50% inhibitory concentration (IC50) turned out to be 0.099 µM.

For the compound `CCc1cnc(Nc2c(F)cc(-c3cccc(OC)c3)cc2F)c(C(=O)O)c1` [Example 40, 2-(3,5-difluoro-3′-methoxybiphenyl-4-ylamino)-5-ethylnicotinic acid], the IC50 at human DHODH was 0.012 µM.

Regarding `CCOc1cccc(-c2cc(F)c(Nc3ncc(C4CC4)cc3C(=O)O)cc2F)c1` [Example 42, 5-cyclopropyl-2-(3′-ethoxy-2,5-difluorobiphenyl-4-ylamino)nicotinic acid], the IC50 at human DHODH is 0.023 µM.

Consider `COc1cccc(-c2cc(F)c(Nc3ncccc3C(=O)O)c(F)c2)c1F` [Example 45, 2-(2′,3,5-trifluoro-3′-methoxybiphenyl-4-ylamino)nicotinic acid], for which, on human DHODH, the IC50 amounted to 0.053 µM.

`O=C(O)c1cccnc1Nc1c(F)cc(-c2cccc(OC3CC3)c2)cc1F` [Example 47, 2-(3′-cyclopropoxy-3,5-difluorobiphenyl-4-ylamino)nicotinic acid]: at human DHODH, the IC50 is 0.017 µM.

With `Cc1c(-c2ccccc2)cc(F)c(Nc2ncccc2C(=O)O)c1F` [Example 48, 2-(3,5-difluoro-2-methylbiphenyl-4-ylamino)nicotinic acid], at human DHODH, the IC50 came to 0.005 µM.

Turning to `O=C(O)c1cc(C2CC2)cnc1Nc1c(F)cc(-c2cccc(OC3CC3)c2)cc1F` [Example 50, 2-(3′-cyclopropoxy-3,5-difluorobiphenyl-4-ylamino)-5-cyclopropylnicotinic acid], at human DHODH, the IC50 came to 0.006 µM.

Turning to `O=C(O)c1cc(C2CC2)cnc1Nc1c(F)cc(-c2cccc(OC(F)(F)F)c2)cc1F` [Example 52, 5-cyclopropyl-2-(3,5-difluoro-3′-(trifluoromethoxy)biphenyl-4-ylamino)nicotinic acid], the IC50 at human DHODH was 0.004 µM.

On to `O=C(O)c1cc(C2CC2)cnc1Nc1c(F)cc(-c2ccccc2Cl)cc1F` [Example 54, 2-(2′-chloro-3,5-difluorobiphenyl-4-ylamino)-5-cyclopropylnicotinic acid], for which the IC50 on human DHODH was 0.005 µM.

As for `Cc1c(-c2cccc(OC(F)(F)F)c2)cc(F)c(Nc2ncccc2C(=O)O)c1F` [Example 56, 2-(3,5-difluoro-2-methyl-3′-(trifluoromethoxy)biphenyl-4-ylamino)nicotinic acid], the IC50 at human DHODH was 0.006 µM.

Take `Cc1c(-c2ccccc2Cl)cc(F)c(Nc2ncccc2C(=O)O)c1F` [Example 57, 2-(2′-chloro-3,5-difluoro-2-methylbiphenyl-4-ylamino)nicotinic acid]: on human DHODH, the IC50 amounted to 0.004 µM.

With `O=C(O)c1cc(Cl)cnc1Nc1c(F)cc(-c2ccccc2)cc1F` [Example 58, 5-chloro-2-(3,5-difluorobiphenyl-4-ylamino)nicotinic acid], the IC50 at human DHODH turned out to be 0.008 µM.

In the case of `COc1cccc(-c2c(F)c(F)c(Nc3ncccc3C(=O)O)c(F)c2F)c1` [Example 60, 2-(2,3,5,6-tetrafluoro-3′-methoxybiphenyl-4-ylamino)nicotinic acid], the IC50 on human DHODH is 0.003 µM.

Regarding `Cc1ccccc1-c1cc(F)c(Nc2ncccc2C(=O)O)c(F)c1` [Example 61, 2-(3,5-difluoro-2′-methylbiphenyl-4-ylamino)nicotinic acid], the IC50 at human DHODH came out at 0.011 µM.

In the case of `Cc1oncc1C(=O)Nc1ccc(C(F)(F)F)cc1` [Leflunomide], in the assay with HIV replication, the “reduces HIV replication” value was “about 75%”.
